{
  "source": "patent US8569358B2",
  "about": "“Use of silymarin and/or constituents thereof as skin or hair pigmentation promoters” (GreenPharma, priority 2005, dated 2013)",
  "key": {"[1]": {"tested_on": "B16F10-line mouse melanoma cells", "test": "Melanin synthesis by B16F10-line melanocytes (7-day culture)", "type": "cell-based", "conditions": "7 days", "protocol": "The melanogenesis-stimulating effect of silybin was measured on B16F10-line mouse melanoma cells.\n(§1) For silybin, the following were determined:\n(§2) after culturing for 7 days under standard conditions, in 24-well plates, DMEM medium containing 10% calf serum:\nthe amount of melanin present in the cultures, by spectrophotometric measurement of the melanin produced, after alkaline extraction, relative to 100% of the control (the control corresponds to the test performed without test compound)."}, "[2]": {"tested_on": "normal human hair follicles", "test": "Protection against degeneration of cultured human hair follicles", "type": "cell-based", "conditions": "precultured 7 days, then treated 7 days", "source_text": "The aim of this test is to show the effect of the compounds used according to the invention on degeneration of the follicles in in vitro cultures of human hair follicles.\nMethod: Normal human hair follicles are isolated by microdissection of human scalp (lifting) and cultured as in Example 4. The bulbs are all precultured (“aged”, without treatment) for 7 days (D7), and then left untreated or treated by the invention for a further 7 days (D14). The follicles are photographed and the morphology is analysed."}, "normal human melanocytes [3]": {"tested_on": "normal human melanocytes", "test": "Cytotoxicity (MTT reduction) and amount of proteins (Bradford), normal human melanocyte cultures", "type": "cell-based", "conditions": "for Proteins / MTT: 10 days; for MTT: control = 100", "source_text": "(§3) after culturing for 10 days under standard conditions, in 24-well plates, in Promocell medium free of “phorbol myristate acetate” (PMA):\nthe cytotoxicity, by estimating the reduction of “methyl thiazolyl tetrazolium” (MTT), the amount of proteins, by assay according to the Bradford method and observation of the cell lawns, […]"}, "normal human melanocytes [4]": {"tested_on": "normal human melanocytes", "test": "Proliferation (3H-thymidine incorporation), normal human melanocytes", "type": "cell-based", "conditions": "3 days; for Proliferation (3H-thymidine), cpm: labelling last 24 hours", "protocol": "(§4) after culturing for 3 days under standard conditions:\nthe effects on the proliferation of normal human melanocytes by incorporation of tritiated thymidine into DNA (labelling for the last 24 hours),"}, "normal human melanocytes [5]": {"tested_on": "normal human melanocytes", "test": "Protein synthesis (3H-leucine incorporation), normal human melanocytes", "type": "cell-based", "conditions": "for Protein synthesis (3H-leucine), % of control / Protein synthesis (3H-leucine), cpm: 3 days; for Protein synthesis (3H-leucine), cpm: labelling last 24 hours", "protocol": "as §4\nthe effects on the metabolism of normal human melanocytes by incorporation of tritiated leucine into neosynthesized proteins (labelling for the last 24 hours)."}, "[6]": {"tested_on": "normal human keratinocytes", "test": "Phagocytosis of fluorescent beads by keratinocytes (flow cytometry)", "type": "cell-based", "conditions": "for % Positive cells (cells which have phagocytozed more than twice the basal phagocytosis), single replicates / Positive cells, % Control / % Positive cells, Mean: 24 hours; for % Positive cells, Mean: triplicate", "protocol": "The aim of this test is to show the effect of the compounds used according to the invention on modulation of the phagocytosis of particles by the keratinocytes.\nMethod: Normal human keratinocytes are cultured in KSFM medium and treated for 24 hours with the compounds according to the invention, in the presence of calibrated fluorescent beads (Molecular Probes) of the size of melanosomes. The phagocytosis of the particles is visualized by fluorescence microscopy, and the cells are then harvested after trypsination and analysed by flow cytometry, to determine the number of cells that have phagocytozed a threshold number of particles and the intensity of the phagocytozed overall fluorescence (10 000 cells analysed per condition, in triplicate)."}, "[7]": {"target": "T1, receptor MC1-R (melanocortin-1 receptor) (Mus musculus, UniProt Q01727)", "T1 sequence (Q01727 whole entry)": "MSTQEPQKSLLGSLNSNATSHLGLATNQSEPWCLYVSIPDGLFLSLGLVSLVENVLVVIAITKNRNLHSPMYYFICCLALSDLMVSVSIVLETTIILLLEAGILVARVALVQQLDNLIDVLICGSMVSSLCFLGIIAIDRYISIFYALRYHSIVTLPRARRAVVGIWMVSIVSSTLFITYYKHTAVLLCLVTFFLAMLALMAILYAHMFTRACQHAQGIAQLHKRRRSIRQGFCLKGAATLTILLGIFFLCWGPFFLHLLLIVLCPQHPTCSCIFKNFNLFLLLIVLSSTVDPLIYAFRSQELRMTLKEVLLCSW", "test": "Displacement of [125I]NDP-alpha-MSH from receptor MC1-R", "type": "binding", "protocol": "The binding of silybin to the receptor MC1-R (melanocortin-1 receptor) was studied.\nSilybin was tested in a test of displacement of an extremely powerful MC1-R ligand: displacement of [^125I]NDP-alpha-MSH, (according to Siegrist et al, 1988, J. Recept. Res., 8: 323-343)."}, "keratinocytes": {"tested_on": "keratinocytes", "test": "Proliferation/protein synthesis of keratinocytes", "type": "cell-based"}, "normal human melanocytes [8]": {"tested_on": "normal human melanocytes", "test": "Melanin synthesis by normal human melanocytes (10-day culture)", "type": "cell-based", "conditions": "10 days", "protocol": "The melanogenesis-stimulating effect of silybin was measured on normal human melanocyte cultures.\nas §1, §3\nthe amount of melanin present in the cultures, by spectrophotometric measurement of the melanin produced, after alkaline extraction, relative to 100% of the control (the control corresponds to the test performed without test compound);"}, "[9]": {"tested_on": "B16F10-line mouse melanoma cells", "test": "Cytotoxicity (MTT) and amount of proteins (Bradford), B16F10 cultures", "type": "cell-based", "conditions": "for Proteins / MTT: 7 days; for MTT: control = 100", "source_text": "as §2\nthe cytotoxicity, by estimating the […] of MTT, the amount of proteins, by assay according to the Bradford method and observation of the cell lawns, […]"}, "[10]": {"target": "T1, receptor MC1-R (melanocortin-1 receptor)", "conditions": "of the order of; read-out: Affinity of the ligand for MC1-R; cited from earlier work"}},
  "note": "Where “and” joins values, the source holds several entries; their conditions need not be identical. Equal values may be shown once.",
  "data": [
    {"molecule": "COc1cc(C2Oc3cc([C@H]4Oc5cc(O)cc(O)c5C(=O)[C@@H]4O)ccc3OC2CO)ccc1O", "note": "(stereo partly drawn) [Silybin, 2-[(2R,3R)-2,3-dihydro-3-(4-hydroxy-3-methoxyphenyl)-2-(hydroxymethyl)-1,4-benzodioxin-6-yl]-2,3-dihydro-3,5,7-trihydroxy-4H-1-benzopyran-4-one, (2R,3R)-(9CI)]", "values": [
      {"measurement": "Melanin", "setting": "[1]; 0.00004%", "result": 13.0, "unit": "µg/mL"},
      {"measurement": "Melanin, % relative to 100% of the control", "setting": "[1]; 0.00004%", "result": 100, "unit": "%"},
      {"measurement": "Melanin", "setting": "[1]; 0.0002%", "result": 15.0, "unit": "µg/mL"},
      {"measurement": "Melanin, % relative to 100% of the control", "setting": "[1]; 0.0002%", "result": 115, "unit": "%"},
      {"measurement": "Melanin", "setting": "[1]; 0.001%", "result": 33.0, "unit": "µg/mL"},
      {"measurement": "Melanin, % relative to 100% of the control", "setting": "[1]; 0.001%", "result": "250% and 254%"},
      {"measurement": "Pigmentation of the hair root", "setting": "[2]", "result": "display pigmentation of all of the hair root"},
      {"measurement": "Proteins", "setting": "normal human melanocytes [3]; 0.00004% (w/v)", "result": 0.765, "unit": "mg/mL"},
      {"measurement": "MTT", "setting": "normal human melanocytes [3]; 0.00004% (w/v)", "result": 113, "unit": "%"},
      {"measurement": "Proteins", "setting": "normal human melanocytes [3]; 0.0002% (w/v)", "result": 0.792, "unit": "mg/mL"},
      {"measurement": "MTT", "setting": "normal human melanocytes [3]; 0.0002% (w/v)", "result": 126, "unit": "%"},
      {"measurement": "Proteins", "setting": "normal human melanocytes [3]; 0.001% (w/v)", "result": 0.830, "unit": "mg/mL"},
      {"measurement": "MTT", "setting": "normal human melanocytes [3]; 0.001% (w/v)", "result": 128, "unit": "%"},
      {"measurement": "Cytotoxic activity (in words)", "setting": "normal human melanocytes [3]; normal human melanocytes", "result": "without any cytotoxic activity"},
      {"measurement": "Proliferation (3H-thymidine), % of control", "setting": "normal human melanocytes [4]; 0.0002%", "result": 83, "unit": "%"},
      {"measurement": "Proliferation (3H-thymidine), cpm", "setting": "normal human melanocytes [4]; 0.0002%", "result": 5638, "unit": "cpm"},
      {"measurement": "Proliferation (3H-thymidine), % of control", "setting": "normal human melanocytes [4]; 0.001%", "result": 53, "unit": "%"},
      {"measurement": "Proliferation (3H-thymidine), cpm", "setting": "normal human melanocytes [4]; 0.001%", "result": 3622, "unit": "cpm"},
      {"measurement": "Protein synthesis (3H-leucine), % of control", "setting": "normal human melanocytes [5]; 0.0002%", "result": 120, "unit": "%"},
      {"measurement": "Protein synthesis (3H-leucine), cpm", "setting": "normal human melanocytes [5]; 0.0002%", "result": 11705, "unit": "cpm"},
      {"measurement": "Protein synthesis (3H-leucine), % of control", "setting": "normal human melanocytes [5]; 0.001%", "result": 124, "unit": "%"},
      {"measurement": "Protein synthesis (3H-leucine), cpm", "setting": "normal human melanocytes [5]; 0.001%", "result": 12099, "unit": "cpm"},
      {"measurement": "Protein synthesis increase", "setting": "normal human melanocytes [5]; protein neosynthesis over 72 hours", "result": 20, "unit": "%"},
      {"measurement": "% Positive cells (cells which have phagocytozed more than twice the basal phagocytosis), single replicates", "setting": "[6]; 0.0002%", "result": "44.29% and 42.92% and 45.88%"},
      {"measurement": "Positive cells, % Control", "setting": "[6]; 0.0002%", "result": 124, "unit": "%"},
      {"measurement": "% Positive cells, Mean", "setting": "[6]; 0.0002%", "result": 44, "unit": "%"},
      {"measurement": "% Positive cells (cells which have phagocytozed more than twice the basal phagocytosis), single replicates", "setting": "[6]; 0.001%", "result": "52.19% and 50.74% and 49.94%"},
      {"measurement": "Positive cells, % Control", "setting": "[6]; 0.001%", "result": 143, "unit": "%"},
      {"measurement": "% Positive cells, Mean", "setting": "[6]; 0.001%", "result": 51, "unit": "%"},
      {"measurement": "Phagocytosis of fluorescent particles (in words)", "setting": "[6]; flow cytometry and fluorescence microscopy", "result": "significant and reproducible stimulation of phagocytosis"},
      {"measurement": "Displacement of [125I]NDP-alpha-MSH", "setting": "[7]; at 100 μM (0.005%)", "result": 10, "unit": "%"},
      {"measurement": "Displacement of [125I]NDP-alpha-MSH", "setting": "[7]; at 500 μM", "result": 30, "unit": "%"},
      {"measurement": "Effect on proliferation/protein synthesis of keratinocytes", "setting": "keratinocytes", "result": "did not otherwise show any effect"},
      {"measurement": "Melanin", "setting": "normal human melanocytes [8]; 0.00004% (w/v)", "result": 31.9, "unit": "µg/mL"},
      {"measurement": "Melanin, % relative to 100% of the control", "setting": "normal human melanocytes [8]; 0.00004% (w/v)", "result": 115, "unit": "%"},
      {"measurement": "Melanin", "setting": "normal human melanocytes [8]; 0.0002% (w/v)", "result": 37.1, "unit": "µg/mL"},
      {"measurement": "Melanin, % relative to 100% of the control", "setting": "normal human melanocytes [8]; 0.0002% (w/v)", "result": 134, "unit": "%"},
      {"measurement": "Melanin", "setting": "normal human melanocytes [8]; 0.001% (w/v)", "result": 41.5, "unit": "µg/mL"},
      {"measurement": "Melanin, % relative to 100% of the control", "setting": "normal human melanocytes [8]; 0.001% (w/v)", "result": 150, "unit": "%"},
      {"measurement": "Proteins", "setting": "[9]; 0.00004%", "result": 1.553, "unit": "mg/mL"},
      {"measurement": "MTT", "setting": "[9]; 0.00004%", "result": 100, "unit": "%"},
      {"measurement": "Proteins", "setting": "[9]; 0.0002%", "result": 1.594, "unit": "mg/mL"},
      {"measurement": "MTT", "setting": "[9]; 0.0002%", "result": 100, "unit": "%"},
      {"measurement": "Proteins", "setting": "[9]; 0.001%", "result": 1.457, "unit": "mg/mL"},
      {"measurement": "MTT", "setting": "[9]; 0.001%", "result": 89, "unit": "%"},
      {"measurement": "Cell metabolism according to MTT and protein synthesis parameters (in words)", "setting": "[9]; B16F10", "result": "without modification of the cell metabolism"}
    ]},
    {"molecule": "[^125I]NDP-alpha-MSH", "values": [
      {"measurement": "Kd", "setting": "[10]", "result": "~0.1", "unit": "nM"}
    ]}
  ]
}
